In this assay the target is T1, Human AMPK α2β2γ1 (Homo sapiens, UniProt O43741+P54646).
T1 construct: The full length cDNAs of human AMPK β2 (NM_005399.3) and human AMPK α2 (NM_006252.3); The full length cDNAs of human AMPK β2 (NM_005399.3); the full length cDNA of human AMPK γ1 (NM_002733.3) had been inserted into pET28b(+); 6xHis (N); made in house; host or cells: Escherichia coli BL21 CodonPlus (DE3)-RTL (AMPK); BL21 Star (DE3) (CaMKKβ)
Kind of assay: Test Example 2: evaluation of an activator for AMP-activated protein kinase (AMPK), human AMPK α2β2γ1 phosphorylated with CaMKK2, FL-Peptide 7 mobility shift. The conditions noted are these: for EC150 (compound concentration showing 150% relative to the control (100%)): human AMPK α2β2γ1, 0.2 mM ATP final, 25° C., 2 hours; for Emax: human AMPK α2β2γ1, relative to control (100%), read-out: Emax (maximum rate of increase in activity within the measurement range). In kind it is biochemical.

The values that follow come from US9980948B2, “Azaindole derivative having AMPK-activating activity” (Shionogi & Co., Ltd., priority 2014, dated 2018).

The structures appear in SMILES notation.

T1 sequence (P54646 whole entry): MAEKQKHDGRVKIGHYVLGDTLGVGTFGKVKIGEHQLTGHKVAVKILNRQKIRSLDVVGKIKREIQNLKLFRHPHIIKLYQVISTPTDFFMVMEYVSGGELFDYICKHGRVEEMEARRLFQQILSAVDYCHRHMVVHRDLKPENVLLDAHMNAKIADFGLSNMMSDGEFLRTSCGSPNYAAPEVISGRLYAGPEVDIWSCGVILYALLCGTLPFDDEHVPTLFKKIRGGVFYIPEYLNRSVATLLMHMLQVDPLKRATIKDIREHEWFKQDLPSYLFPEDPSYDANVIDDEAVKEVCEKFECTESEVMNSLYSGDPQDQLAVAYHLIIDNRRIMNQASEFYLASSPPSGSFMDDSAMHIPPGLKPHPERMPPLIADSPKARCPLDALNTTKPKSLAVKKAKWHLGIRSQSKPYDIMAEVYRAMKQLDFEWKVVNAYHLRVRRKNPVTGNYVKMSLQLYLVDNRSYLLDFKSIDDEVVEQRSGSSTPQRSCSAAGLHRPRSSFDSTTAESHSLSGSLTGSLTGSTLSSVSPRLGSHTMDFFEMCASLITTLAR
T1 sequence (O43741 whole entry): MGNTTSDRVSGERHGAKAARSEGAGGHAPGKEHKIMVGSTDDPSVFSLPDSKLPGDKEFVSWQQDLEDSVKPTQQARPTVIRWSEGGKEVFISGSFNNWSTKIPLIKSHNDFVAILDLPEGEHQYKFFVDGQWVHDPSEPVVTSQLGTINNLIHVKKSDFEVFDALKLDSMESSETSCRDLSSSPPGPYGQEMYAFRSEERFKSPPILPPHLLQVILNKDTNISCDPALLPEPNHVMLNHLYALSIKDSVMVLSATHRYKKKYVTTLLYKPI
T1 sequence (P54619 whole entry partner): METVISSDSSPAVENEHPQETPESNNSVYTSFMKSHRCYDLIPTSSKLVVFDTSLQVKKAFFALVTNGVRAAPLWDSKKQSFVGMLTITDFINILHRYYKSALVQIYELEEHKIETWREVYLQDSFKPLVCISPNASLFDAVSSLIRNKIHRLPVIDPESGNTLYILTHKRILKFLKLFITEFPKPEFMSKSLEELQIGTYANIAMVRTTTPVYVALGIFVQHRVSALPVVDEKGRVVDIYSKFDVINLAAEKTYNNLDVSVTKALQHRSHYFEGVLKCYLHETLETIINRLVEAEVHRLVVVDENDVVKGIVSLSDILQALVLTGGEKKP

By Emax is commonly meant the greatest response seen or fitted, relative to the assay's reference. For `CCS(C)(=O)=Nc1ccc(-c2ccc(-c3nc4cc(O[C@@H]5CO[C@H]6[C@@H]5OC[C@H]6O)[nH]c4cc3F)cc2)cc1` (stereo partly shown) [Compound I-4-43], the “EC150 (compound concentration showing 150% relative to the control (100%))” value came out at 1.3 nM and the Emax turned out to be 453%.

In the case of `NC(=O)Nc1ccc(-c2ccc(-c3nc4cc(O[C@@H]5CO[C@H]6[C@@H]5OC[C@H]6O)[nH]c4cc3F)cc2)cc1` [Compound I-4-44], the “EC150 (compound concentration showing 150% relative to the control (100%))” value is given as 1.6 nM and the Emax was 518%.

Regarding `COC(=O)NC1CCN(c2ccc(-c3nc4cc(O[C@@H]5CO[C@H]6[C@@H]5OC[C@H]6O)[nH]c4cc3F)cc2)CC1` [Compound I-4-53], the “EC150 (compound concentration showing 150% relative to the control (100%))” value stood at 10 nM and the Emax came out at 509%.

For `CS(=O)(=O)Nc1ccc(-c2ccc(-c3nc4cc(O[C@@H]5CO[C@H]6[C@@H]5OC[C@H]6O)[nH]c4cc3F)cc2)nc1` [Compound I-4-56], the “EC150 (compound concentration showing 150% relative to the control (100%))” value is reported as 5.8 nM and the Emax was found to be 396%.

In the case of `COC(=O)NC1CC=C(c2ccc(-c3nc4cc(O[C@@H]5CO[C@H]6[C@@H]5OC[C@H]6O)[nH]c4cc3F)cc2)CC1` (stereo partly shown) [Compound I-4-58], the “EC150 (compound concentration showing 150% relative to the control (100%))” value was 4.3 nM and the maximal response (Emax) amounted to 486%.
